Measurements taken from publication PMC10156173, “GUN4 appeared early in cyanobacterial evolution” (PNAS Nexus, 2023).

Tests used:
[1] = molecular target: T1, CrGUN4 (Chlamydomonas GUN4) (Chlamydomonas reinhardtii, UniProt A8I5N5, N219G); test: absorption spectrum of purified protein co-expressed with PCB biosynthesis in E. coli; conditions: TKKG buffer (25 mM TES-KOH pH 7.8, 100 mM KCl, 10% glycerol); no PCB binding detected
T1 construct: gene CHLRE_05g246800v5; in-frame His-tagged fusion in pET28a; expressed in E. coli C41 with pKT271 (PCB biosynthesis); Ni-NTA purified

[2] = molecular target: T2, CrGUN4 (Chlamydomonas GUN4) (Chlamydomonas reinhardtii, UniProt A8I5N5); test: as above; assay type: binding; conditions: TKKG buffer (25 mM TES-KOH pH 7.8, 100 mM KCl, 10% glycerol); peaks at 368 and 674 nm
T2 construct: gene CHLRE_05g246800v5; in-frame His-tagged fusion in pET28a; expressed in E. coli C41 with pKT271 (PCB biosynthesis); Ni-NTA purified
T2 sequence (A8I5N5 entry or part of it): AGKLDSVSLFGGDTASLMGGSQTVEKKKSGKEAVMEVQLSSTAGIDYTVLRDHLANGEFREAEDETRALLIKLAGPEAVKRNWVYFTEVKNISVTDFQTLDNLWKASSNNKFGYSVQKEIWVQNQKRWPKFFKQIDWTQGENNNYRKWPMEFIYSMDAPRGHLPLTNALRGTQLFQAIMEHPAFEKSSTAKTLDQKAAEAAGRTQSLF

T1 sequence (A8I5N5 entry or part of it N219G): as the sequence (A8I5N5 entry or part of it) above, with N167G counted along it

CC=C1C(=CC2=NC(=Cc3[nH]c(C=C4NC(=O)C(CC)=C4C)c(C)c3CCC(=O)O)C(CCC(=O)O)=C2C)NC(=O)[C@@H]1C [PCB]
bilin absorbance peaks (368 and 674 nm) [1]: these peaks are absent in the N219G variant
absorption spectrum of purified protein co-expressed with PCB biosynthesis in E. [2]: Wild-type CrGUN4 contains a small amount of bilin as shown by characteristic peaks
